Reference: US8399681B2, “Substituted aminothiazolone indazoles as estrogen related receptor-alpha modulators” (Janssen Pharmaceutica NV, priority 2009, dated 2013)

Experiments:
Zucker fa/fa male rats = test: Zucker fa/fa Rat Model Assay; type: in vivo; conditions: dosed orally once a day for 4 days, blood collected at day 5
Description: Zucker fa/fa is a monogenic model of frank diabetes due to a mutation on the fa gene truncating the leptin receptor and preventing its interaction with its peptide hormone. This mutation results in a hyperphagic phenotype and the rodent develops obesity, hyperlipidemia, fasting hyperglycemia and insulin resistance. Zucker fa/fa male rats were received at four weeks of age and allowed to acclimate for one week. At five weeks of age the animals were single housed in cages in a temperature-controlled room with 12-hour light/dark cycle. The rats were allowed ad libitum access to water and food and throughout the study were maintained on a Purina 5008 diet. Animals were sorted based primarily on fed insulin levels and circulating triglycerides. Animals were dosed orally once a day in the morning for 4 days. The vehicle used was either 20% HPβCD (Hydroxypropyl Beta Cyclodextrin) or 15% Vitamin E/30% PEG-400 (Polyethylene Glycol 400). Fed insulin and triglycerides were measured using blood collected from the tail vein at day 5. Serum plasma samples were prepared by centrifugation in EDTA (Ethylenediaminetetraacetic acid) containing tubes, transferred into 96 well plates and stored at −80° C.

[1] = target: T1, ERR1 (also known as ERR-α or ERR-1) (Homo sapiens, UniProt P11474); test: TR-FRET assay (disruption of co-activator peptide binding); type: biochemical; conditions: 6His-tagged ERR1 LBD, GST-hSRC2 co-activator polypeptide; average of 3 independent experiments
T1 sequence (P11474 193-421 limits assumed): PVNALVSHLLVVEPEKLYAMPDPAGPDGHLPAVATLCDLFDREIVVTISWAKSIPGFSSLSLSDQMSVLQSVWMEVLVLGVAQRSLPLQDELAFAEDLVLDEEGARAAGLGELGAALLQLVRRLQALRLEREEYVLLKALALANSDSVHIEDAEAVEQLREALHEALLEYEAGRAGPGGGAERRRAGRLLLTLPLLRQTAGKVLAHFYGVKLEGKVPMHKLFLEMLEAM
Procedure, shortened: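 Compound-induced loss of co-activator recruitment, read by time-resolved FRET (excitation 340 nm; 615 and 665 nm emission) after 4-18 h at 25 °C. Reagents: 6 nM ERR1LBD, 6 nM GST-SRC-2, 30 nM Eu cryptate, 7.5 nM XL665, pH 8 Tris buffer. Values: hyperbolic fits averaged over 3 independent runs.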

Row | EC50 [1] [nM] | SMILES | % Lowering Fed Insulin Levels (Zucker fa/fa male rats) [%] | % Lowering Fed Triglyceride Levels (Zucker fa/fa male rats) [%]
1 | 19.7 | O=C1N=C(N2CCOC(C(=O)O)C2)S/C1=C\c1ccc2c(cnn2Cc2ccc(C(F)(F)F)cc2C(F)(F)F)c1 (centres unmarked) [Example 188, 4-[5-({1-[2,4-Bis(trifluoromethyl)benzyl]-1H-indazol-5-yl}methylidene)-4-oxo-4,5-dihydro-1,3-thiazol-2-yl]morpholine-2-carboxylic acid] | 81 | 59
2 | 15 | O=C(O)C1=CCN(C2=NC(=O)/C(=C/c3ccc4c(cnn4Cc4ccc(Cl)cc4C(F)(F)F)c3)S2)CC1 [Example 198, 1-[5-({1-[4-Chloro-2-(trifluoromethyl)benzyl]-1H-indazol-5-yl}methylidene)-4-oxo-4,5-dihydro-1,3-thiazol-2-yl]-1,2,3,6-tetrahydropyridine-4-carboxylic acid] | 35 | 21
3 | 21 | COC(=O)N[C@@H]1C[C@H](CO)N(C2=NC(=O)/C(=C/c3ccc4c(cnn4Cc4ccc(C(F)(F)F)cc4C(F)(F)F)c3)S2)C1 [Example 213, Methyl {1-[5-({1-[2,4-bis(trifluoromethyl)benzyl]-1H-indazol-5-yl}methylidene)-4-oxo-4,5-dihydro-1,3-thiazol-2-yl]-5-(R)-(hydroxymethyl)pyrrolidin-3-(R)-yl}carbamate] | 42 | 30
4 | 13.4 | CN1CCN(C2=NC(=O)/C(=C/c3ccc4c(c3)c(C#N)nn4Cc3ccc(Cl)cc3C(F)(F)F)S2)CC1 [Example 223, 1-[4-Chloro-2-(trifluoromethyl)benzyl]-5-{[2-(4-methylpiperazin-1-yl)-4-oxo-1,3-thiazol-5(4H)-ylidene]methyl}-1H-indazole-3-carbonitrile] | 77 | 85

The next lines start with the compound.

Row | SMILES | EC50 [1] [nM] | % Lowering Fed Insulin Levels (Zucker fa/fa male rats) [%] | % Lowering Fed Triglyceride Levels (Zucker fa/fa male rats) [%]
5 | O=C1N=C(N2C[C@@H]3C[C@H]2CN3CCO)S/C1=C\c1ccc2c(cnn2Cc2ccc(C(F)(F)F)cc2C(F)(F)F)c1 [Example 71, 5-[1-(2,4-Bis-trifluoromethyl-benzyl)-1H-indazol-5-ylmethylene]-2-[5-(2-hydroxy-ethyl)-2S,5S-diaza-bicyclo[2.2.1]hept-2-yl]-thiazol-4-one] | 16.4 | 37 | 25
6 | CN(C)C(=O)CN1CCN(C2=NC(=O)/C(=C/c3ccc4c(cnn4Cc4ccc(Cl)cc4C(F)(F)F)c3)S2)CC1 [Example 72, 2-(4-{5-[1-(4-Chloro-2-trifluoromethyl-benzyl)-1H-indazol-5-ylmethylene]-4-oxo-4,5-dihydro-thiazol-2-yl}-piperazin-1-yl)-N,N-dimethyl-acetamide] | 13.3 | 62 | 57
7 | NC1CN(C2=NC(=O)/C(=C/c3ccc4c(cnn4Cc4ccc(Cl)cc4C(F)(F)F)c3)S2)C1 [Example 98, 2-(3-Amino-azetidin-1-yl)-5-[1-(4-chloro-2-trifluoromethyl-benzyl)-1H-indazol-5-ylmethylene]-thiazol-4-one] | 15 | 51 | 22
8 | O=C1N=C(N2CCNCC(O)C2)S/C1=C\c1ccc2c(cnn2Cc2ccc(Cl)cc2C(F)(F)F)c1 (centres unmarked) [Example 125, 5-[1-(4-Chloro-2-trifluoromethyl-benzyl)-1H-indazol-5-ylmethylene]-2-(6-hydroxy-[1,4]diazepan-1-yl)-thiazol-4-one] | 10 | 30 | 
9 | O=C1N=C(N2CCN[C@@H](CO)C2)S/C1=C\c1ccc2c(cnn2Cc2ccc(C(F)(F)F)cc2C(F)(F)F)c1 [Example 139, 5-[1-(2,4-Bis-trifluoromethyl-benzyl)-1H-indazol-5-ylmethylene]-2-(3-(R)-hydroxymethyl-piperazin-1-yl)-thiazol-4-one] | 16 | 82 | 58
10 | O=C1N=C(N2CCO[C@H](CO)C2)S/C1=C\c1ccc2c(cnn2Cc2ccc(C(F)(F)F)cc2C(F)(F)F)c1 [Example 140, 5-[1-(2,4-Bis-trifluoromethyl-benzyl)-1H-indazol-5-ylmethylene]-2-((2S)-hydroxymethyl-morpholin-4-yl)-thiazol-4-one] | 19 | 59 | 67
11 | O=C1N=C(N2CCOC[C@H]2CO)S/C1=C\c1ccc2c(cnn2Cc2ccc(C(F)(F)F)cc2C(F)(F)F)c1 [Example 141, 5-[1-(2,4-Bis-trifluoromethyl-benzyl)-1H-indazol-5-ylmethylene]-2-(3(R)-hydroxymethyl-morpholin-4-yl)-thiazol-4-one] | 37 | 49 | 76
12 | O=C1N=C(N2CCOC[C@H]2CO)S/C1=C\c1ccc2c(cnn2Cc2ccc(Cl)cc2C(F)(F)F)c1 [Example 142, 5-[1-(4-Chloro-2-trifluoromethyl-benzyl)-1H-indazol-5-ylmethylene]-2-(3(R)-hydroxymethyl-morpholin-4-yl)-thiazol-4-one] | 20 | 63 | 55
13 | O=C1N=C(N2CCN[C@@H](CO)C2)S/C1=C\c1ccc2c(c1)c(Cl)nn2Cc1ccc(C(F)(F)F)cc1C(F)(F)F [Example 186, 5-[1-(2,4-Bis-trifluoromethyl-benzyl)-3-chloro-1H-indazol-5-ylmethylene]-2-(3-(R)-hydroxymethyl-piperazin-1-yl)-thiazol-4-one] | 5 | 75 | 56
14 | O=C1N=C(N2CCc3c(O)noc3C2)S/C1=C\c1ccc2c(cnn2Cc2ccc(Cl)cc2C(F)(F)F)c1 [Example 197, 5-({1-[4-Chloro-2-(trifluoromethyl)benzyl]-1H-indazol-5-yl}methylidene)-2-(3-hydroxy-4,7-dihydroisoxazolo[5,4-c]pyridin-6(5H)-yl)-1,3-thiazol-4(5H)-one] | 29 | 27 | 2
